Read-outs that look alike come from different tables or passages of the source.
Key:
Type in all cases: in vivo, human
healthy participants = test: Phase 1 cross-over ambulatory blood pressure monitoring (ABPM) study, 300/400 mg BID; details: for Observations with DBP: Change > 10 and absolute value > 80 mmHg / Observations with SBP: Change > 10 and absolute value > 130 mmHg: outpatient, number of observations (%)
Experimental: This study reports the results of a Phase 1, randomized cross-over trial designed to assess inpatient and outpatient ambulatory blood pressure monitoring (ABPM) in healthy volunteers treated with the compound of Example 1 (BIIB074) for 36 days.
This was a Phase 1, randomized, double-blind, placebo-controlled, repeat dose, 2-period cross-over study to investigate the effect of BIIB074 300-400 mg bid on ambulatory blood pressure (ABP) in healthy participants (FIG. 2). The study comprised: screening (to occur a maximum of 30 days before the first baseline assessment); two 36-day treatment periods, each preceded by a baseline visit and separated by a 7-day washout (to minimize possible carry over effects); and a follow-up period of 7-14 days after last dose. Prior to this study, no females had received BIIB074; for this reason, a single dose BIIB074 session at the dose level of 400 mg was also conducted in female participants one week prior to the period 1 baseline visit. Following this session, some participants were predicted to exceed the predefined PK limit (area under the plasma concentration-time curve [AUC] 97 μg·h/mL) when receiving 400 mg bid at steady state. Therefore, in the subsequent phases of the study, all female participants received a lower dose of 300 mg bid (males received 400 mg bid).
The primary endpoint was change in 24 h average SBP and DBP from baseline to day 36 as determined by ABPM. Secondary outcome measures included: change in 24 h average SBP and DBP from baseline to days 4 and 15; change in average SBP and DBP within a 12 h dosing interval from baseline to days 14 and 35 (inpatient); change in 24 h average ambulatory heart rate from baseline to days 4, 15 and 36; proportion of participants whose 24 h SBP and DBP increased by <5, 5-9, 10-14, 15-19, and >20 mm Hg compared with baseline; PK parameters of BIIB074 following a single oral dose in healthy female participants, and following repeated oral doses given twice daily to healthy male and female participants; PK/pharmacodynamic (PD) analyses to examine the correlation between ABP and plasma levels and/or metrics of the systemic exposure of BIIB074.
ABP was collected over 24 hours on an outpatient basis at baseline and at days 4, 15 and 36, and over 12 hours on an inpatient basis at baseline, and at days 14 and 35. The ABPM device was placed on the non-dominant arm (except in clinical situations that prohibited measuring BP in the non-dominant arm). BP and heart rate were measured every 15 minutes.
Non-inferiority was based on the one-sided 95% confidence interval (CI) for BIIB074-placebo excluding […] in SBP or DBP. It was planned to recruit approximately 60 participants in order to obtain a minimum of 48 evaluable for ABPM during the repeat dose phase, for at least 90% power, assuming a within-subject standard deviation (SDw) of 8.21 mmHg.
ABPM data were analyzed using a repeated measures mixed effects model, whereby fixed effects were treatment, day, treatment*day, period, average baseline*day, period adjusted baseline*day, sex and treatment*sex; random effect was subject; and repeated effect was day. All summary statistics were carried out using SAS 8.02 for UNIX running under the Harmonisation of Analysis and Reporting Program (HARP) environment. PK parameters were calculated by standard non-compartmental analysis according to working practices and using Wn Nonlin Pro v. 5.2.

[1] = system: painful lumbosacral radiculopathy; test: Clinical efficacy in painful lumbosacral radiculopathy (Phase 2); details: 350 mg bid, PLSR
[2] = Pharmacokinetics in 300/400 mg BID study; details: for concentration at 12 h: read-out: C12 h
Experimental: The primary endpoint was change in 24 h average SBP and DBP from baseline to day 36 as determined by ABPM. Secondary outcome measures included: change in 24 h average SBP and DBP from baseline to days 4 and 15; change in average SBP and DBP within a 12 h dosing interval from baseline to days 14 and 35 (inpatient); change in 24 h average ambulatory heart rate from baseline to days 4, 15 and 36; proportion of participants whose 24 h SBP and DBP increased by <5, 5-9, 10-14, 15-19, and >20 mm Hg compared with baseline; PK parameters of BIIB074 following a single oral dose in healthy female participants, and following repeated oral doses given twice daily to healthy male and female participants; PK/pharmacodynamic (PD) analyses to examine the correlation between ABP and plasma levels and/or metrics of the systemic exposure of BIIB074. ABPM data were analyzed using a repeated measures mixed effects model, whereby fixed effects were treatment, day, treatment*day, period, average baseline*day, period adjusted baseline*day, sex and treatment*sex; random effect was subject; and repeated effect was day. All summary statistics were carried out using SAS 8.02 for UNIX running under the Harmonisation of Analysis and Reporting Program (HARP) environment. PK parameters were calculated by standard non-compartmental analysis according to working practices and using Wn Nonlin Pro v. 5.2. The safety population was the primary analysis population for this study and included all participants who received one or more doses of BIIB074. The PK population was defined as participants in the safety population for whom a PK sample was obtained and analysed.

[3] = female, human, plasma, oral, 300 mg, Repeat dose Day 1, Female 300 mg bid (N = 21)
[4] = female, human, plasma, oral, 300 mg, Repeat dose Day 14, Female 300 mg bid (N = 21)
[5] = female, human, plasma, oral, 300 mg, Repeat dose Day 35, Female 300 mg bid (N = 21)
[6] = female, human, plasma, oral, 400 mg, Single Dose (400 mg), Female (N = 22)
[7] = male, human, plasma, oral, 400 mg, Repeat dose Day 1, Male 400 mg bid (N = 33)
[8] = male, human, plasma, oral, 400 mg, Repeat dose Day 14, Male 400 mg bid (N = 33)
[9] = male, human, plasma, oral, 400 mg, Repeat dose Day 35, Male 400 mg bid (N = 33)

t1/2 ([2]; Single Dose (400 mg), Female (N = 22), listed as BIIB074, hydrochloride): 8.91 h
AUC(0-t) ([2]; female, human, plasma, oral, 300 mg bid, Repeat dose Day 14, Female 300 mg bid (N = 21), read-out: AUC(0-12)): 29200 ng·h/mL
Cmax [2, 3]: 2570 ng/mL
AUC(0-t) ([2]; female, human, plasma, oral, 300 mg, Repeat dose Day 1, Female 300 mg bid (N = 21), read-out: AUC(0-12)): 16200 ng·h/mL
AUC(0-t) ([2]; female, human, plasma, oral, 300 mg, Repeat dose Day 1, Female 300 mg bid (N = 21), read-out: AUC(0-24)): 32400 ng·h/mL
concentration at 12 h [2, 3]: 746 ng/mL
Cmax [2, 4]: 4030 ng/mL
AUC(0-t) ([2]; female, human, plasma, oral, 300 mg, Repeat dose Day 14, Female 300 mg bid (N = 21), read-out: AUC(0-24)): 58300 ng·h/mL
concentration at 12 h [2, 4]: 1440 ng/mL
Cmax [2, 5]: 3990 ng/mL
Tmax [2, 5]: 1 h
AUC(0-t) ([2]; female, human, plasma, oral, 300 mg, Repeat dose Day 35, Female 300 mg bid (N = 21), read-out: AUC(0-12)): 27400 ng·h/mL
AUC(0-t) ([2]; female, human, plasma, oral, 300 mg, Repeat dose Day 35, Female 300 mg bid (N = 21), read-out: AUC(0-24)): 54800 ng·h/mL
concentration at 12 h [2, 5]: 1310 ng/mL
Cmax [2, 6]: 3780 ng/mL
Tmax [2, 6]: ≤ 1.5 h
half-life [2, 6]: ~9 h
AUC(0-t) ([2]; female, human, plasma, oral, 400 mg, Single Dose (400 mg), Female (N = 22), read-out: AUC(0-12)): 24200 ng·h/mL
AUC(0-t) ([2]; female, human, plasma, oral, 400 mg, Single Dose (400 mg), Female (N = 22), read-out: AUC(0-24)): 48300 ng·h/mL
AUC(0-t) ([2]; female, human, plasma, oral, 400 mg, Single Dose (400 mg), Female (N = 22), read-out: AUC(0-t)): 32800 ng·h/mL
AUC(0-inf) ([2]; human, plasma, oral, Single Dose (400 mg), Female (N = 22)): 38700 ng·h/mL
between-subject variability (CV %) of AUC(0-24) ([2]; in vivo): 20-25%
AUC(0-t) ([2]; male, human, plasma, oral, 400 mg bid, Repeat dose Day 1, Male 400 mg bid (N = 33), read-out: AUC(0-12)): 19100 ng·h/mL
Cmax [2, 7]: 3210 ng/mL
Tmax [2, 7]: 1 h
AUC(0-t) ([2]; male, human, plasma, oral, 400 mg, Repeat dose Day 1, Male 400 mg bid (N = 33), read-out: AUC(0-24)): 38300 ng·h/mL
concentration at 12 h [2, 7]: 889 ng/mL
Cmax [2, 8]: 4790 ng/mL
Tmax [2, 8]: 1 h
AUC(0-t) ([2]; male, human, plasma, oral, 400 mg, Repeat dose Day 14, Male 400 mg bid (N = 33), read-out: AUC(0-12)): 32100 ng·h/mL
AUC(0-t) ([2]; male, human, plasma, oral, 400 mg, Repeat dose Day 14, Male 400 mg bid (N = 33), read-out: AUC(0-24)): 64100 ng·h/mL
concentration at 12 h [2, 8]: 1590 ng/mL
Cmax [2, 9]: 4410 ng/mL
Tmax [2, 9]: 1 h
AUC(0-t) ([2]; male, human, plasma, oral, 400 mg, Repeat dose Day 35, Male 400 mg bid (N = 33), read-out: AUC(0-12)): 30100 ng·h/mL
AUC(0-t) ([2]; male, human, plasma, oral, 400 mg, Repeat dose Day 35, Male 400 mg bid (N = 33), read-out: AUC(0-24)): 60100 ng·h/mL
concentration at 12 h [2, 9]: 1460 ng/mL
SMILES: Cl.NC(=O)[C@@H]1CC[C@H](c2ccc(OCc3ccccc3F)cc2)N1 [Example 1, (5R)-5-(4-{[(2-Fluorophenyl)methyl]oxy}phenyl)-L-prolinamide hydrochloride]
average increase of SBP over the 24 h interval (healthy participants; PK/PD, inpatient ABPM): < 2 mmHg
observations with DBP increase more than 10 mmHg and absolute value >80 mmHg (healthy participants; day 36): 6.9%
observations with SBP increase more than 10 mmHg and absolute value >130 mmHg (healthy participants; day 36): 5.0%
slight increase in change from baseline for SBP, DBP and heart rate (healthy participants; inpatient ABPM, days 14 and 35): 2.0-2.5 mmHg/bpm
observations in category increase from baseline SBP >30 mmHg (healthy participants; outpatient 24 h, day 36, 4/1249 observations): 0%
observations in category increase from baseline DBP >20 mmHg (healthy participants; outpatient 24 h, day 36, 35/1249 observations): 3%
Observations with DBP: Change > 10 and absolute value > 80 mmHg (healthy participants; day 4, 300-400 mg repeat dose): 137 (10.6%)
Observations with SBP: Change > 10 and absolute value > 130 mmHg (healthy participants; day 4, 300-400 mg repeat dose): 116 (9.0%)
Observations with DBP: Change > 10 and absolute value > 80 mmHg (healthy participants; day 15, 300-400 mg repeat dose): 109 (8.3%)
Observations with SBP: Change > 10 and absolute value > 130 mmHg (healthy participants; day 15, 300-400 mg repeat dose): 95 (7.2%)
Observations with DBP: Change > 10 and absolute value > 80 mmHg (healthy participants; day 36, 300-400 mg repeat dose): 86 (6.9%)
Observations with SBP: Change > 10 and absolute value > 130 mmHg (healthy participants; day 36, 300-400 mg repeat dose): 63 (5.0%)
overall change in SBP and DBP, outpatient and inpatient ABPM (healthy participants; repeat doses for 36 days): lack of clinically relevant change in SBP and DBP
Clinical efficacy [1]: EFFICACY OBSERVED
